Results from ChEMBL document CHEMBL1151289, “Biosynthesis of ganefromycin: results from blocked mutants and bioconversion experiments” (1998).
In brackets after ≈: the same amount, converted by molar mass.

Each compound was assayed on Priestia megaterium (assay: Antimicrobial activity against Bacillus megaterium).
Assay type: functional

Question: `C/C=C\C=C\[C@@H]1O[C@](O)([C@H](C)C(=O)NC/C=C/C=C(\C)C(O)C(C)C2CC(O)C(/C=C/C=C/C=C/C(=O)O)O2)C[C@H](O)C1(C)C` (stereo not given in full) was tested. Which MIC did it give?
Answer: The MIC was greater than 100 µg/mL.

Question: `C/C=C\C=C\[C@@H]1O[C@](O)([C@H](CO[C@H]2C[C@H](OC)[C@H](O[C@@H]3C[C@@H](OC)[C@@H](O[C@H]4C[C@H](OC)[C@H](O)[C@H](C)O4)[C@H](C)O3)[C@H](C)O2)C(=O)NC/C=C/C=C(\C)C(OC)C(C)C(=O)CC(O)C/C=C/C=C/C=C/C(=O)O)C[C@H](O)C1(C)C` (stereo not given in full) was tested. Which MIC did it give?
Answer: Its MIC is 3.1 µg/mL (≈ 2.84 µM).

Question: For `C/C=C\C=C\[C@@H]1O[C@](O)([C@H](CO)C(=O)NC/C=C/C=C(\C)C(OC)C(C)C2CC(O)C(/C=C/C=C/C=C/C(=O)O)O2)[C@H](O)[C@H](O)C1(C)C` (stereo not given in full), which MIC is on record?
Answer: The MIC was 50 µg/mL (≈ 74 µM).

Question: With `C/C=C\C=C\[C@@H]1O[C@](O)([C@H](CO[C@H]2C[C@H](OC)[C@H](O[C@@H]3C[C@@H](OC)[C@@H](O[C@H]4C[C@H](OC)[C@H](O)[C@H](C)O4)[C@H](C)O3)[C@H](C)O2)C(=O)NC/C=C/C=C(\C)C(OC)C(C)C2CC(O)C(/C=C/C=C/C=C/C(=O)O)O2)C[C@H](O)C1(C)C` (stereo not given in full) as the compound, how does the MIC read?
Answer: The MIC was 6.3 µg/mL (≈ 5.77 µM).

Question: `C/C=C\C=C\[C@@H]1O[C@](O)([C@H](C)C(=O)NC/C=C/C=C(\C)C(OC)C(C)C2CC(O)C(/C=C/C=C/C=C/C(=O)O)O2)[C@H](OC(=O)Cc2ccccc2)[C@H](O)C1(C)C` (stereo not given in full) was tested. Which MIC did it give?
Answer: The MIC was 12.5 µg/mL (≈ 16.1 µM).

Question: How did the MIC turn out when `C/C=C\C=C\[C@@H]1O[C@](O)([C@H](CO[C@H]2C[C@H](O)[C@H](O)[C@H](C)O2)C(=O)NC/C=C/C=C(\C)C(OC)C(C)C2CC(O)C(/C=C/C=C/C=C/C(=O)O)O2)[C@H](O)[C@H](OC(=O)Cc2ccccc2)C1(C)C` (stereo not given in full) was run?
Answer: The MIC was 50 µg/mL (≈ 54.1 µM).

Question: `C/C=C\C=C\[C@@H]1O[C@](O)([C@H](CO[C@H]2C[C@H](O)[C@H](O)[C@H](C)O2)C(=O)NC/C=C/C=C(\C)C(OC)C(C)C2CC(O)C(/C=C/C=C/C=C/C(=O)O)O2)[C@H](O)[C@H](O)C1(C)C` (stereo not given in full) was tested. Which MIC did it give?
Answer: The MIC was 100 µg/mL (≈ 124 µM).

Question: With `C/C=C\C=C\[C@@H]1O[C@](O)([C@@H](CO[C@H]2C[C@H](OC)[C@H](O[C@@H]3C[C@@H](OC)[C@@H](O[C@H]4C[C@H](OC)[C@H](O)[C@H](C)O4)[C@H](C)O3)[C@H](C)O2)C(=O)NC/C=C/C=C(\C)C(OC)C(C)C2CC(O)C(/C=C/C=C/C=C/C(=O)O)O2)C[C@H](O)C1(C)C` (stereo not given in full) as the compound, how does the MIC read?
Answer: The MIC was 6.3 µg/mL (≈ 5.77 µM).

Question: Which MIC does the source give for `C/C=C\C=C\[C@@H]1O[C@](O)([C@H](C)C(=O)NC/C=C/C=C(\C)C(O)C(C)C2CC(O)C(/C=C/C=C/C=C/C(=O)O)O2)[C@H](O)[C@H](O)C1(C)C` (stereo not given in full) here?
Answer: The MIC was 100 µg/mL (≈ 155 µM).

Question: `C/C=C\C=C\[C@@H]1O[C@](O)([C@H](CO[C@H]2C[C@H](OC)[C@H](O[C@@H]3C[C@@H](OC)[C@@H](O[C@H]4C[C@H](OC)[C@H](O)[C@H](C)O4)[C@H](C)O3)[C@H](C)O2)C(=O)NC/C=C/C=C(\C)C(OC)C(C)C2CC(O)C(/C=C/C=C/C=C/C(=O)O)O2)[C@H](OC(=O)Cc2ccccc2)[C@H](O)C1(C)C` (stereo not given in full) was tested. Which MIC did it give?
Answer: The MIC was 0.4 µg/mL (≈ 0.326 µM).

Question: Which MIC does the source give for `C/C=C\C=C\[C@@H]1O[C@](O)([C@H](C)C(=O)NC/C=C/C=C(\C)C(OC)C(C)C2CC(O)C(/C=C/C=C/C=C/C(=O)O)O2)[C@H](O)[C@H](O)C1(C)C` (stereo not given in full) here?
Answer: Its MIC is 6.3 µg/mL (≈ 9.55 µM).

Question: For `C/C=C\C=C\[C@@H]1O[C@](O)([C@@H](CO[C@@H]2O[C@@H](C)[C@@H](C)[C@@H](O[C@@H]3C[C@@H](OC)[C@@H](O)[C@H](C)O3)[C@H]2OC)C(=O)NC/C=C/C=C(\C)C(OC)C(C)C2CC(O)C(/C=C/C=C/C=C/C(=O)O)O2)C[C@H](O)C1(C)C` (stereo not given in full), which MIC is on record?
Answer: Its MIC is 12.6 µg/mL (≈ 13.1 µM).

Question: How did the MIC turn out when `C/C=C\C=C\[C@@H]1O[C@](O)([C@H](CO[C@H]2C[C@H](O)[C@H](O)[C@H](C)O2)C(=O)NC/C=C/C=C(\C)C(OC)C(C)C2CC(O)C(/C=C/C=C/C=C/C(=O)O)O2)[C@H](OC(=O)Cc2ccccc2)[C@H](O)C1(C)C` (stereo not given in full) was run?
Answer: Its MIC is 12.5 µg/mL (≈ 13.5 µM).

Question: For `C/C=C\C=C\[C@@H]1O[C@](O)([C@@H](C)C(=O)NC/C=C/C=C(\C)C(O)C(C)C2CC(O)C(/C=C/C=C/C=C/C(=O)O)O2)C[C@H](O)C1(C)C` (stereo not given in full), which MIC is on record?
Answer: The MIC was greater than 100 µg/mL.

Question: With `C/C=C\C=C\[C@@H]1O[C@](O)([C@H](CO[C@@H]2O[C@@H](C)[C@@H](C)[C@@H](O[C@@H]3C[C@@H](OC)[C@@H](O)[C@H](C)O3)[C@H]2OC)C(=O)NC/C=C/C=C(\C)C(OC)C(C)C2CC(O)C(/C=C/C=C/C=C/C(=O)O)O2)C[C@H](O)C1(C)C` (stereo not given in full) as the compound, how does the MIC read?
Answer: Its MIC is 12.6 µg/mL (≈ 13.1 µM).
